{"source": "patent EP0397424A2", "about": "“Multiple analysis system” (Biotrack, Inc., priority 1989, dated 1990)", "system": "red cells", "experiment": "Red cell lysis by detergent-saturated polyethylene reagent pads (completeness of lysis, red cell fragments)", "format": "cell-based", "set-up": "key: + = complete lysis or absence of red cell fragments; - = incomplete lysis or presence of red cell fragments", "settings": "blood passed through reagent pad saturated with detergent solution", "procedure": "Centered polyethylene reagent pads were saturated with a detergent solution, and the ability of the pad to provide completely lysed blood not containing any red cell fragments was analyzed. Since this sample is also used in the blood donor cartridge as described above to provide sample that is used in an agglutination reaction, inhibition of the agglutination reaction was also measured. Inhibition of agglutination was done subjectively, with 0 indicating little or no inhibition of agglutination and 5 representing the maximum amount of inhibition (essentially no agglutination under normal agglutinating conditions).\nOther combinations of detergents can be determined in the same manner by measuring both red cell lysis and inhibition of agglutination and selecting a combination of detergents that provides the desired complete lysis with a minimum of inhibition.", "data": [{"substance": "mellitin", "values": [{"measurement": "Red Cell Fragments", "setting": "+ = absence of fragments", "result": "-"}, {"measurement": "Incomplete RBC lysis", "setting": "+ = complete lysis", "result": "+"}]}]}
